{"source": "ChEMBL document CHEMBL6087458", "about": "“The Discovery of a Novel AXL/Triple Angiokinase Inhibitor Based on 6-Chloro-Substituted Indolinone and Side Chain Methyl Substitution Inhibiting Pancreatic Cancer Growth and Metastasis” (J Med Chem, 2025)", "key": {"[1]": {"assay": "Metabolic stability in rat liver microsome assessed as half life measured upto 240 mins by HPLC analysis", "assay_type": "ADME", "conditions": "liver microsomes"}, "[2]": {"assay": "Cytotoxicity against human MCF-10A cells assessed as inhibition of cell growth", "assay_type": "toxicity, cell-based"}, "[3]": {"assay": "Half life in Sprague-Dawley rat at 5 mg/kg, iv", "assay_type": "ADME, organism-based", "conditions": "in vivo"}, "BXPC-3 [4]": {"test_system": "BXPC-3", "assay": "Antitumor activity against human BXPC-3 cells xenografted in mouse assessed as reduction in tumor weight at 50 mg/kg, po administered for 14 days", "assay_type": "functional", "set-up": "scale not given: the % may be the effect or the level left", "conditions": "time 14 day"}, "[5]": {"assay": "AUC (0 to last) in Sprague-Dawley rat at 50 mg/kg, po", "assay_type": "ADME, organism-based", "conditions": "in vivo, po, 50 mg/kg"}, "NCI-H1975": {"test_system": "NCI-H1975", "assay": "cells", "conditions": "Homo sapiens, NCI-H1975, 72 h", "description": "Antiproliferative activity against human NCI-H1975 cells assessed as cell viability incubated for 72 hrs by MTT assay"}, "[6]": {"assay": "Oral bioavailability in Sprague-Dawley rat at 50 mg/kg", "assay_type": "ADME, organism-based", "conditions": "in vivo, po, 50 mg/kg"}, "[7]": {"assay": "Volume of distribution at steady state in Sprague-Dawley rat at 5 mg/kg, iv", "assay_type": "ADME, organism-based", "conditions": "in vivo, read-out: Vdss"}, "cells": {"assay": "cells", "conditions": "Homo sapiens, CDDP-resistant A549 cell, 72 h", "description": "Antiproliferative activity against human CDDP-resistant A549 cell assessed as cell viability incubated for 72 hrs by MTT assay"}, "MKN-45": {"test_system": "MKN-45", "assay": "cells", "conditions": "Homo sapiens, MKN-45, 72 h", "description": "Antiproliferative activity against human MKN-45 cells assessed as cell viability incubated for 72 hrs by MTT assay"}, "BXPC-3 [8]": {"test_system": "BXPC-3", "assay": "cells", "conditions": "Homo sapiens, BXPC-3, 72 h", "description": "Antiproliferative activity against human BXPC-3 cells assessed as cell viability incubated for 72 hrs by MTT assay"}, "A549": {"test_system": "A549", "assay": "cells", "conditions": "Homo sapiens, A549, 72 h", "description": "Antiproliferative activity against human A549 cells assessed as cell viability incubated for 72 hrs by MTT assay"}, "[9]": {"assay": "Cytotoxicity against mouse NIH/3T3 cells assessed as cell viability incubated for 72 hrs by MTT assay", "assay_type": "toxicity, cell-based, NIH3T3"}, "[10]": {"test_system": "Osimertinib-resistant NCI-H1975 cell", "assay": "cells", "conditions": "Homo sapiens, 72 h"}, "BXPC-3 [11]": {"test_system": "BXPC-3", "assay": "Antitumor activity against human BXPC-3 cells xenografted in mouse assessed as tumor growth inhibition at 50 mg/kg, po administered for 14 days", "assay_type": "functional", "conditions": "BXPC-3, 336 h, time 14 day, read-out: TGI"}, "A549/TR": {"test_system": "A549/TR", "assay": "cells", "conditions": "Homo sapiens, 72 h", "description": "Antiproliferative activity against human A549/Taxol cells assessed as cell viability incubated for 72 hrs by MTT assay"}, "SW480": {"test_system": "SW480", "assay": "cells", "conditions": "Homo sapiens, SW480, 72 h", "description": "Antiproliferative activity against human SW480 cells assessed as cell viability incubated for 72 hrs by MTT assay"}, "MDA-MB-231": {"test_system": "MDA-MB-231", "assay": "cells", "conditions": "Homo sapiens, MDA-MB-231, 72 h", "description": "Antiproliferative activity against human MDA-MB-231 cells assessed as cell viability incubated for 72 hrs by MTT assay"}, "[12]": {"assay": "Cmax in Sprague-Dawley rat at 50 mg/kg, po", "assay_type": "ADME, organism-based", "conditions": "in vivo"}, "[13]": {"assay": "Cytotoxicity against human HK-2 cells assessed as inhibition of cell growth", "assay_type": "toxicity, cell-based"}, "[14]": {"assay": "Cytotoxicity against human HaCaT cells assessed as inhibition of cell growth", "assay_type": "toxicity, cell-based"}, "PC-9": {"test_system": "PC-9", "assay": "cells", "conditions": "Homo sapiens, PC-9, 72 h", "description": "Antiproliferative activity against human PC-9 cells assessed as cell viability incubated for 72 hrs by MTT assay"}, "[15]": {"biological_target": "Tyrosine-protein kinase receptor UFO (Homo sapiens) (UniProt P30530)", "sequence (P30530 whole entry)": "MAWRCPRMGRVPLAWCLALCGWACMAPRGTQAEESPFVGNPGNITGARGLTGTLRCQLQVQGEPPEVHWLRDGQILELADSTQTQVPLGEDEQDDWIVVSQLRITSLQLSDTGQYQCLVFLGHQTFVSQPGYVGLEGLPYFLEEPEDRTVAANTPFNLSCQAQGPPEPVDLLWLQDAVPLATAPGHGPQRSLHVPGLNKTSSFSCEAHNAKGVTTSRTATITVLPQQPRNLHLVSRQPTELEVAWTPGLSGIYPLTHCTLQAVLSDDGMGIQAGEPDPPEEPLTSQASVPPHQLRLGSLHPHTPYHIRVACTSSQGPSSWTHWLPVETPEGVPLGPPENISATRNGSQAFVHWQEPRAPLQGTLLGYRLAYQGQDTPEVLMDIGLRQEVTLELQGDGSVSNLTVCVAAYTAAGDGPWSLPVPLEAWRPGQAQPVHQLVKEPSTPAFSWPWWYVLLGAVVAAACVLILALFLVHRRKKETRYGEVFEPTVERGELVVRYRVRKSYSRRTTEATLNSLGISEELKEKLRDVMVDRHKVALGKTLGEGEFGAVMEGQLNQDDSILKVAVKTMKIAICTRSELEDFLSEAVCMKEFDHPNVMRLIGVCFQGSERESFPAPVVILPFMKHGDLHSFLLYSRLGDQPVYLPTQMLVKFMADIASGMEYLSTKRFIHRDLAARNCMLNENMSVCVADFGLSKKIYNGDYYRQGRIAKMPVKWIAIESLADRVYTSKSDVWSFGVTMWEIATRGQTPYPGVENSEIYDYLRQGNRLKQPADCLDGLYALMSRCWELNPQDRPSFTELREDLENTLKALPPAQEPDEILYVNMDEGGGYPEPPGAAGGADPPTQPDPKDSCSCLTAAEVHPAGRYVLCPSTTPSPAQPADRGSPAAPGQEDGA", "conditions": "dose 100.0 nM", "description": "Inhibition of AXL (unknown origin) at 100 nM by envision reader analysis relative to control"}, "[16]": {"assay": "Tmax in Sprague-Dawley rat at 50 mg/kg, po", "assay_type": "ADME, organism-based", "conditions": "in vivo"}, "[17]": {"assay": "Cytotoxicity against human HEK293 cells assessed as inhibition of cell growth", "assay_type": "toxicity, cell-based"}, "[18]": {"assay": "Half life in Sprague-Dawley rat at 50 mg/kg, po", "assay_type": "ADME, organism-based", "conditions": "in vivo"}, "[19]": {"assay": "Cytotoxicity against human HUVEC cells assessed as cell viability incubated for 72 hrs by MTT assay", "assay_type": "toxicity, cell-based"}, "[20]": {"assay": "Clearance in Sprague-Dawley rat at 5 mg/kg, iv", "assay_type": "ADME, organism-based", "conditions": "in vivo"}, "[21]": {"assay": "AUC (0 to last) in Sprague-Dawley rat at 5 mg/kg, iv", "assay_type": "ADME, organism-based", "conditions": "in vivo, iv, 5 mg/kg"}}}
{"molecule": "COC(=O)c1ccc2c(c1)NC(=O)/C2=C(\\Nc1ccc(N(C)C(=O)CN2CCN(C)CC2)cc1)c1ccccc1", "note": "[NINTEDANIB]", "values": [{"measurement": "half-life", "setting": "[1]", "value": 0.194, "unit": "h"}, {"measurement": "IC50", "setting": "[2]", "value": "> 10", "unit": "µM"}, {"measurement": "half-life", "setting": "[3]", "value": 1.76, "unit": "h"}, {"measurement": "Activity", "setting": "BXPC-3 [4]", "value": 55.84, "unit": "%"}, {"measurement": "AUClast", "setting": "[5]", "value": 64.2, "unit": "ng·h/mL"}, {"measurement": "IC50", "setting": "NCI-H1975", "value": "> 10", "unit": "µM"}, {"measurement": "F", "setting": "[6]", "value": 7.91, "unit": "%"}, {"measurement": "Vd", "setting": "[7]", "value": 7.91, "unit": "L/kg"}, {"measurement": "IC50", "setting": "cells", "value": "> 10", "unit": "µM"}, {"measurement": "IC50", "setting": "MKN-45", "value": "> 10", "unit": "µM"}, {"measurement": "IC50", "setting": "BXPC-3 [8]", "value": 5.34, "unit": "µM"}, {"measurement": "IC50", "setting": "A549", "value": "> 10", "unit": "µM"}, {"measurement": "IC50 at 72 h", "setting": "[9]", "value": 4.34, "unit": "µM"}, {"measurement": "IC50", "setting": "[10]", "value": "> 10", "unit": "µM"}, {"measurement": "inhibition in vivo at 50 mg/kg", "setting": "BXPC-3 [11]", "value": 68.1, "unit": "%"}, {"measurement": "IC50", "setting": "A549/TR", "value": 10, "unit": "µM"}, {"measurement": "IC50", "setting": "SW480", "value": "> 10", "unit": "µM"}, {"measurement": "IC50", "setting": "MDA-MB-231", "value": "> 10", "unit": "µM"}, {"measurement": "Cmax", "setting": "[12]", "value": 64.2, "unit": "ng/mL"}, {"measurement": "IC50", "setting": "[13]", "value": 2.87, "unit": "µM"}, {"measurement": "IC50", "setting": "[14]", "value": "> 10", "unit": "µM"}, {"measurement": "IC50", "setting": "PC-9", "value": "> 10", "unit": "µM"}, {"measurement": "inhibition", "setting": "[15]", "value": 32.1, "unit": "%"}, {"measurement": "Tmax", "setting": "[16]", "value": 2, "unit": "h"}, {"measurement": "IC50", "setting": "[17]", "value": 3.46, "unit": "µM"}, {"measurement": "half-life", "setting": "[18]", "value": 3.99, "unit": "h"}, {"measurement": "IC50 at 72 h", "setting": "[19]", "value": 3.69, "unit": "µM"}, {"measurement": "clearance", "setting": "[20]", "value": 111, "unit": "mL/min/kg"}, {"measurement": "AUClast", "setting": "[21]", "value": 749, "unit": "ng·h/mL"}]}
